How the values were obtained:
[1] = test system: human SIRT1 enzyme; parameters: method as in doi:10.1177/1934578X1801301130; settings: cited from earlier work
[2] = test system: NCI-H460 cells; assay: MTT cell viability assay, NCI-H460 cells; assay type: cell-based, human
Experimental: (§1) The Bioresource Collection and Research Center (BCRC) in Hsinchu, Taiwan provided the NCI-H460 and A549 cell lines, which were cultured in DMEM supplemented with 10% FBS, 100 U/mL penicillin A, and 100 U/mL streptomycin. These cells were kept at a temperature of 37 °C with 5% CO2 and a humidified air environment.
(§2) To investigate the impact of α-viniferin (0–50 μM), ε-viniferin (0–50 μM), and signal transduction inhibitors (20 μM PD98059, 10 μM SB431542, 20 μM SP600125, 20 μΜ LY294002, 10 μM BIRB796, or 10 μM GO6976) on the viability of NCI-H460 or A549 cells were investigated using MTT assay. NCI-H460 or A549 cells were treated with various concentrations of α-viniferin, ε-viniferin, and signal transduction inhibitors and were incubated for 24, 48, or 72 h. Following incubation, 5 mg/mL MTT solution in phosphate-buffered saline (PBS) was added to each well, and the plate was further incubated for 4 h at 37 °C. Following this, the medium was aspirated, and DMSO was utilized to dissolve the MTT-formazan crystals. Finally, the solution was analyzed using a microplate reader at a wavelength of 540 nm.

[3] = test system: A549 cells; assay: MTT cell viability assay, A549 cells; assay type: cell-based, human; settings: low doses (20 μM)
Experimental: as §1, §2

[4] = test system: NCI-H460 cells; assay: Annexin V/7-AAD double staining, flow cytometry; assay type: cell-based, human; settings: 24 h, control 5.3%
Experimental: To investigate the molecular mechanism by which α-viniferin affects NCI-H460 cells, the presence of apoptotic and necrotic cells was analyzed using double staining with annexin V and 7-aminoactinomycin D (7-AAD). Annexin V, which binds to phosphatidylserine (PS), is used as a marker of early-stage apoptosis. The 7-ADD is a fluorescent DNA dye that is excluded from viable cells with intact membranes but can penetrate the plasma membrane of apoptotic and necrotic cells. Double staining with both annexin V and 7-AAD can differentiate between cells in different stages of apoptosis and necrosis. Specifically, cells that are annexin V+/7-AAD- are in early apoptosis, cells that are annexin V+/7-AAD+ are in late apoptosis, and cells that are annexin V-/7-AAD+ are in necrosis. Cells that are annexin V-/7-AAD- are considered viable. […] These findings implied dose-dependent induction of apoptosis by α-viniferin in NCI-H460 cells. The mechanism behind α-viniferin-induced apoptosis in NCI-H460 cells merits further investigation.
The annexin V and 7-ADD double staining was utilized to detect apoptotic and necrotic cells. NCI-H460 cells were treated with α-viniferin at various concentrations (0, 5, 10, 20, and 30 μM) for 24 h. Following treatment, the cells were collected by trypsinization and suspended in a warm medium. The cells in a suspension were centrifuged at 2000× g for 5 min, and the resulting supernatant was removed, leaving the cell pellets. The pellets were subsequently resuspended in 200 µL of PBS and were fixed by adding […]. Next, the cell pellets that had been fixed were resuspended in 500 µL of 1 × annexin V-FITC Binding Buffer, to which 5 µL each of annexin V-FITC and 7-AAD staining reagents were added. The samples were then vortexed gently and incubated for 15 min at 4 °C in the dark. Finally, the samples were analyzed using a BD FACScan™ flow cytometer.

[5] = test system: NCI-H460 cells; assay: Western blot of apoptosis-related proteins; assay type: cell-based, human; settings: 10, 15, 20, 30 μM, 24 h
Experimental: The western blot analysis was conducted to check the expression levels of cleaved caspase-3, cleaved PARP, SIRT1, vimentin, and AKT phosphorylation in NCI-H460 cells after treatment with α-viniferin at various concentrations (0, 10, 15, 20, and 30 μM) for 24 h. After treatment, the cells in a 10-cm plate were lysed in an ice-cold lysis buffer, containing protease and […] inhibitors. The Bio-Rad protein assay kit (Bio-Rad Laboratories, Hercules, CA, USA) was utilized to measure the protein concentration in each lysate. Equal amounts of protein (50 μg) were loaded onto each lane, separated using sodium dodecyl sulfate-polyacrylamide gel electrophoresis (SDS-PAGE), and subsequently transferred onto polyvinylidene fluoride (PVDF) membranes. First, the membranes were blocked using 1% BSA in PBS at room temperature for 1 h. Then, the membranes incubated with primary antibodies against full length caspase-3, activated caspase-3, full length PARP, cleaved PARP, SIRT1, vimentin, and AKT phosphorylation, and followed by secondary antibodies conjugated with horseradish peroxidase were added to the samples. Finally, the immunoreactive bands were visualized using an enhanced chemiluminescence (ECL) detection system.

[6] = test system: NCI-H460 cells; assay: Immunofluorescence assay of AIF localization (Hoechst 33258 nuclear stain); assay type: cell-based, human; settings: 5, 10, 15, 20, 30 μM, 24 h
Experimental: The immunofluorescence assay was conducted following the method described in a previous study to detect the localization of AIF in NCI-H460 cells after treatment with α-viniferin at various concentrations (0, 5, 10, 15, 20, and 30 μM) for 24 h. After treatment, the cells in a 6-well plate were washed with PBS, and fixed immediately with 4% formaldehyde at room temperature for 15 min. Then, NCI-H460 cells were treated with 0.1% Triton X-100 in PBS at room temperature for 15 min to achieve permeabilization. After that, NCI-H460 cells were incubated with anti-AIF primary antibodies at 4 °C for 24 h, followed by incubation with secondary antibodies conjugated with fluorescein isothiocyanate at 37 °C for 1 h. To stain the cell nuclei, NCI-H460 cells were treated with a solution containing […] Hoechst 33,258 for 30 min. After washing the cells with PBS, they were mounted onto a glass slide for visualization. Confocal laser scanning microscopy was employed to capture the images. The mean fluorescence intensity, which represented the protein level, was analyzed using the Image J software.

[7] = test system: NCI-H460-cell xenografts; assay: In vivo xenograft tumor growth experiment; parameters: species or system BALB/c nude mice
Experimental: (§3) The male BALB/c nude mice utilized in this investigation were obtained from the National Laboratory Animal Breeding and Research Center situated in Taiwan. All animal experimentation procedures were conducted in accordance with National Tsinghua University’s Institutional Animal Care and Use Committee Guidelines (Protocol No. 107049). For this study, the hind leg of five-week-old nude mice was subcutaneously implanted with 1 × 10^6 NCI-H460 cells. Treatment was initiated only after the tumors had grown to a volume of 100–200 mm^3. Subsequently, the nude mice with NCI-H460-cell xenografts were randomly allocated into two groups: experimental and control, each comprising five mice. The experimental group was administered 5 mg/kg α-viniferin through intraperitoneal injection five times every week, while the control group was administered PBS. After four weeks, the mice were euthanized. Tumor weight, vimentin expression, histopathological changes and apoptosis in the tumor section were evaluated using immunohistochemistry (IHC) staining, hematoxylin and eosin staining, and TUNEL assay. The quantification of AST, CPK, LDH, and creatinine levels was carried out following previously described procedures. Briefly, AST, LDH, CPK, and creatinine levels were quantified using commercial kits (Wako Pure Chemical Industries, Osaka, Japan).

[8] = Serum AST, CPK, LDH and creatinine in xenograft-bearing mice; assay type: in vivo, BALB/c nude mice; settings: 5 mg/kg i.p., five times every week, four weeks
Experimental: as §3

[9] = test system: osteosarcoma cells (HOS); parameters: method as in PMID 34728247; settings: cited from earlier work
[10] = test system: osteosarcoma cells (U2OS); parameters: method as in PMID 34728247; settings: cited from earlier work
[11] = test system: A549; parameters: method as in PMID 34728247; settings: A549 cells; cited from earlier work
[12] = test system: A549 lung cancer cells; parameters: method as in PMID 34728247; settings: cited from earlier work
[13] = test system: NSCLC cells; parameters: method as in PMID 35684095; settings: cited from earlier work
[14] = 5 mg/kg i.p., five times every week, four weeks, compared with control

In the case of `Oc1ccc([C@H]2c3c(O)cc(O)cc3[C@H]3c4c(cc(O)cc4[C@@H]2c2cc(/C=C/c4cc(O)cc5c4[C@H](c4cc(O)cc(O)c4)[C@@H](c4ccc(O)cc4)O5)ccc2O)O[C@@H]3c2ccc(O)cc2)cc1` [vitisin A], the “activity of the human SIRT1 enzyme” value [1] is given as “inhibit the activity”.
For `COc1cccc(-c2cc(=O)c3ccccc3o2)c1N` [PD98059, reference compound], the cell viability ([2]; inhibitor 20 μM, 24 h) was “decreased cell viability”.
For (+)-hopeaphenol, the “activity of the human SIRT1 enzyme” value [1] is given as “inhibit the activity”.
For `Oc1ccc(/C=C/c2cc(O)cc3c2[C@@H](c2cc(O)cc(O)c2)[C@H](c2ccc(O)cc2)O3)cc1` [ε-viniferin], the anti-proliferative effect ([2]; 20 μM) was “did not exhibit potent anti-proliferative effects”, the anti-proliferative effect ([2]; higher concentrations (above 20 μM)) was “did demonstrate such effects” and the cell viability [3] was “inhibited A549 cell viability”.
In the case of `Oc1ccc([C@H]2Oc3cc(O)cc(/C=C/c4ccc5c(c4)[C@@H](c4cc(O)cc6c4[C@H](c4cc(O)cc(O)c4)[C@@H](c4ccc(O)cc4)O6)[C@H](c4ccc(O)cc4)O5)c3[C@@H]2c2cc(O)cc(O)c2)cc1` [(−)-vitisin B], the “activity of the human SIRT1 enzyme” value [1] is listed as “inhibit the activity”.
With `O=c1cc(N2CCOCC2)oc2c(-c3ccccc3)cccc12` [LY294002, reference compound] the cell viability ([2]; inhibitor 20 μM, 24 h) was “decreased cell viability”.
For `Oc1ccc([C@H]2Oc3cc(O)cc4c3[C@@H]2c2cc(O)cc3c2[C@@H](c2cc(O)cc5c2[C@@H]4[C@H](c2ccc(O)cc2)O5)[C@H](c2ccc(O)cc2)O3)cc1` [α-viniferin, α-Viniferin], the cell viability ([2]; low doses 10–20 μM, 24, 48, 72 h) was “inhibited cell viability in a dose- and time-dependent manner”, the “apoptotic cells (early + late apoptotic cells)” value ([4]; 5 μM) was 7.0% and the “apoptotic cells (early + late apoptotic cells)” value ([4]; 10 μM) was 8.3%. For the same molecule, the “apoptotic cells (early + late apoptotic cells)” value ([4]; 20 μM) was 22.3%, the “apoptotic cells (early + late apoptotic cells)” value ([4]; 30 μM) was 35.0% and the “protein expression level of SIRT1” value [5] was “decreased the protein expression levels”. For the same molecule, the “protein expression level of vimentin” value [5] was “decreased the protein expression levels”, the “protein expression of activated caspase-3” value [5] was “increased the protein expression” and the “protein expression of cleaved PARP” value [5] was “increased the protein expression”. For the same molecule, the AKT phosphorylation ([5]; normalized to AKT) was “decreased the protein expression levels”, the “AIF translocation to the nucleus” value [6] was “translocated to the nucleus” and the DNA fragmentation [6] was “caused DNA fragmentation”. The “apoptotic cells in tumor tissue (TUNEL staining)” value ([7]; 5 mg/kg i.p., five times every week, four weeks) was “increased numbers of apoptotic cells”, the tumor volume [7, 14] was “more significant reduction” and the tumor weight [7, 14] was “more significant reduction”. The “vimentin expression in tumor (IHC)” value [7, 14] was “reduced”, the tumor growth ([7]; 5 mg/kg, i.p., five days/week) was “suppression of tumor growth” and the “liver or kidney function (serum AST, CPK, LDH, creatinine)” value [8] was “no negative impact”. For the same molecule, the apoptosis [9] was “induce apoptosis”, the apoptosis [10] was “induce apoptosis” and the apoptosis [11] was “induce apoptosis”. The “epithelial mesenchymal transition (EMT)” value [12] was “inhibit epithelial mesenchymal transition” and the TGF-induced vimentin expression [13] was “inhibit TGF-induced vimentin expression”.

Source: paper PMC10223120, “α-Viniferin-Induced Apoptosis through Downregulation of SIRT1 in Non-Small Cell Lung Cancer Cells” (Pharmaceuticals, 2023)
